Reference: US20240173279A1, “Method of Treatment for Autophagy Diseases by Administration of Dexibuprofen and Use of Dexibuprofen for Preparation of a Medicament for Same” (JEM THERAPEUTICS PBC, priority 2021, published 2024)
Like-named read-outs stand apart in the source and are kept apart here.

Key:
[1] = system: Hereditary Spastic Paraparesis, homozygous TECPR2 mutations; assay: Treatment of a patient with Hereditary Spastic Paraparesis (Example 2); type: in vivo; settings: human patient, daily oral doses, after 30 days of treatment
Protocol: A human patient is tested and found to be homozygous for TECPR2 mutations and suffering from neurodegenerative issues related to Hereditary Spastic Paraparesis. The patient is given daily oral doses of dexibuprofen to reduce the effects of the disease.

[2] = in vivo; cited from earlier work
[3] = cited from earlier work; for safety / side effect profile compared to ibuprofen: published studies, incl. pediatric population

## CC(C)Cc1ccc([C@H](C)C(=O)O)cc1 [Dexibuprofen, (S)-a-methyl-4-(2-methylpropyl)benzeneacetic acid]
[1]
  neurodegenerative issues relating to TECPR2 mutations: reduced neurodegenerative issues
[2]
  crossing of the blood brain barrier (BBB): crosses the blood brain barrier
[3]; in vivo
  safety profile compared to acetaminophen: superior safety profile to acetaminophen
[3]
  safety / side effect profile compared to ibuprofen: extremely similar to ibuprofen
[3]; listed as dexibuprofen
  safety / side effect profile compared to ibuprofen: did not note safety differences

## CC(C)Cc1ccc(C(C)C(=O)O)cc1 (stereo not drawn) [ibuprofen]
[2]
  crossing of the blood brain barrier (BBB): crosses the blood brain barrier
